Experimental data published in EPA's ToxValDB 9.5 (doi:10.2903/j.efsa.2012.2917).
“And” between values parts separate entries of the source, which are not always exact repeats. Equal values may be shown once.

Tests used:
Anas platyrhynchos = settings: short-term; oral; feed; mortality

## Cn1cc(C(=O)Nc2ccc(F)cc2-c2ccc(Cl)c(Cl)c2)c(C(F)F)n1 [Bixafen]
Anas platyrhynchos
  LC50: > 1550 mg/kg-day
Colinus virginianus; acute, oral, diet, mortality
  LC50: > 1160 mg/kg-day
Colinus virginianus; acute, oral, mortality
  LD50: > 2000 mg/kg-day
Colinus virginianus; reproduction developmental
  NOEC: 24.5 mg/kg-day and 30 mg/kg-day
Rattus norvegicus; acute, oral, mortality
  LD50: > 5000 mg/kg-day
Rattus norvegicus; chronic, body weight
  NOEL: 33.3 mg/kg-day
Rattus norvegicus; chronic, duration: 2 years, organ weight
  NOAEL: 2 mg/kg-day
Rattus norvegicus; developmental, development
  NOAEL: 20 mg/kg-day
Rattus norvegicus; subchronic, duration: 90 days, oral, organ weight
  NOAEL: 12.9 mg/kg-day
